{
  "source": "paper PMC5218480",
  "about": "(PLoS ONE, 2017)",
  "system": "MV-4-11 cells",
  "assay": "Gene expression microarray analysis (Affymetrix PrimeView) and GSEA",
  "format": "cell-based, human",
  "parameters": "RFU PODN (11730768_x_at) / Fold change /veh PODN (11730768_x_at) / RFU LINC00158 (11744669_a_at) / Fold change /veh LINC00158 (11744669_a_at) / RFU DUSP10 (11751237_a_at) / Fold change /veh DUSP10 (11751237_a_at) / RFU ID3 (11757404_x_at) / Fold change /veh ID3 (11757404_x_at) / RFU PLEKHG5 (11737974_s_at) / Fold change /veh PLEKHG5 (11737974_s_at) / RFU LRRC4B (11730491_at) / Fold change /veh LRRC4B (11730491_at) / RFU GIMAP4 (11747438_a_at) / Fold change /veh GIMAP4 (11747438_a_at) / RFU KRT8 (11758183_x_at) / Fold change /veh KRT8 (11758183_x_at) / RFU CNN1 (11734310_a_at) / Fold change /veh CNN1 (11734310_a_at) / RFU VPS37D (11726825_at) / Fold change /veh VPS37D (11726825_at) / RFU C10orf10 (11716522_x_at) / Fold change /veh C10orf10 (11716522_x_at) / RFU KIR2DL2 /// KIR2DL4 /// KIR2DL5A /// KIR2DL5B /// KIR2DS1 /// KIR2DS2 /// KIR2DS3 /// KIR2DS4 /// KIR3DL3 /// KIR3DL3 /// KIR3DS1 (11738374_at) / Fold change /veh KIR2DL2 /// KIR2DL4 /// KIR2DL5A /// KIR2DL5B /// KIR2DS1 /// KIR2DS2 /// KIR2DS3 /// KIR2DS4 /// KIR3DL3 /// KIR3DL3 /// KIR3DS1 (11738374_at) / RFU C1QL1 (11718748_at) / Fold change /veh C1QL1 (11718748_at) / RFU TMPRSS4 (11747572_a_at) / Fold change /veh TMPRSS4 (11747572_a_at) / RFU HAMP (11756126_x_at) / Fold change /veh HAMP (11756126_x_at) / RFU RNFT2 (11725882_a_at) / Fold change /veh RNFT2 (11725882_a_at) / RFU NR4A2 (11747474_a_at) / Fold change /veh NR4A2 (11747474_a_at) / RFU ABCC12 (11746883_a_at) / Fold change /veh ABCC12 (11746883_a_at) / RFU TMEM136 (11760407_x_at) / Fold change /veh TMEM136 (11760407_x_at) / RFU CLDN22 /// WWC2 (11732394_at) / Fold change /veh CLDN22 /// WWC2 (11732394_at) / RFU HLA-DPB1 (11760878_x_at) / Fold change /veh HLA-DPB1 (11760878_x_at) / RFU SPINT1 (11716480_a_at) / Fold change /veh SPINT1 (11716480_a_at) / RFU GAP43 (11754022_s_at) / Fold change /veh GAP43 (11754022_s_at) / RFU A4GNT (11735810_at) / Fold change /veh A4GNT (11735810_at) / RFU PRB3 (11715151_x_at) / Fold change /veh PRB3 (11715151_x_at) / RFU TUBB4B (11761932_at) / Fold change /veh TUBB4B (11761932_at) / RFU CAPN14 (11732068_a_at) / Fold change /veh CAPN14 (11732068_a_at) / RFU TMCC2 (11721928_a_at) / Fold change /veh TMCC2 (11721928_a_at) / RFU IRGQ (11745062_a_at) / Fold change /veh IRGQ (11745062_a_at) / RFU FAM174B (11720279_a_at) / Fold change /veh FAM174B (11720279_a_at) / RFU TMPRSS4 (11748680_a_at) / Fold change /veh TMPRSS4 (11748680_a_at) / RFU FAM212B (11763350_a_at) / Fold change /veh FAM212B (11763350_a_at) / RFU PLEKHG5 (11743358_a_at) / Fold change /veh PLEKHG5 (11743358_a_at) / RFU ZSCAN30 (11745921_a_at) / Fold change /veh ZSCAN30 (11745921_a_at) / RFU CMKLR1 (11741424_a_at) / Fold change /veh CMKLR1 (11741424_a_at) / RFU LOC101060620 /// MAPK8IP1 (11723275_at) / Fold change /veh LOC101060620 /// MAPK8IP1 (11723275_at) / RFU SPTSSB (11747773_x_at) / Fold change /veh SPTSSB (11747773_x_at) / RFU PRSS12 (11739890_at) / Fold change /veh PRSS12 (11739890_at) / RFU BIN1 (11741810_x_at) / Fold change /veh BIN1 (11741810_x_at) / RFU WNT11 (11732464_a_at) / Fold change /veh WNT11 (11732464_a_at) / RFU C10orf10 (11716521_a_at) / Fold change /veh C10orf10 (11716521_a_at) / RFU C5orf56 (11738089_at) / Fold change /veh C5orf56 (11738089_at) / RFU CYB561 (11721691_x_at) / Fold change /veh CYB561 (11721691_x_at) / RFU ANKRD19P (11752326_a_at) / Fold change /veh ANKRD19P (11752326_a_at) / RFU OR2T12 /// OR2T33 /// OR2T8 (11738714_s_at) / Fold change /veh OR2T12 /// OR2T33 /// OR2T8 (11738714_s_at) / RFU VCAN (11748164_a_at) / Fold change /veh VCAN (11748164_a_at) / RFU JSRP1 (11732532_at) / Fold change /veh JSRP1 (11732532_at) / RFU KRTAP10-11 (11738290_x_at) / Fold change /veh KRTAP10-11 (11738290_x_at) / RFU MYO3A (11730013_a_at) / Fold change /veh MYO3A (11730013_a_at) / RFU EBF3 (11725865_a_at) / Fold change /veh EBF3 (11725865_a_at) / RFU CAMK2N1 (11719241_x_at) / Fold change /veh CAMK2N1 (11719241_x_at) / RFU C5orf56 (11738088_a_at) / Fold change /veh C5orf56 (11738088_a_at) / RFU OLFML3 (11715873_a_at) / Fold change /veh OLFML3 (11715873_a_at) / RFU LOC100653217 /// NTM (11731650_a_at) / Fold change /veh LOC100653217 /// NTM (11731650_a_at) / RFU MAPK11 (11762145_a_at) / Fold change /veh MAPK11 (11762145_a_at) / RFU FIZ1 (11724087_x_at) / Fold change /veh FIZ1 (11724087_x_at) / RFU OASL (11726364_x_at) / Fold change /veh OASL (11726364_x_at) / RFU SOX15 (11748057_x_at) / Fold change /veh SOX15 (11748057_x_at) / RFU CD79A (11719716_a_at) / Fold change /veh CD79A (11719716_a_at) / RFU HIST1H1D (11736915_at) / Fold change /veh HIST1H1D (11736915_at) / RFU CASKIN2 (11723855_a_at) / Fold change /veh CASKIN2 (11723855_a_at) / RFU LOC730098 (11760151_x_at) / Fold change /veh LOC730098 (11760151_x_at) / RFU OR4N2 (11742367_at) / Fold change /veh OR4N2 (11742367_at) / RFU PRRT2 (11749266_a_at) / Fold change /veh PRRT2 (11749266_a_at) / RFU SNX32 (11753110_a_at) / Fold change /veh SNX32 (11753110_a_at) / RFU CDHR5 (11726645_a_at) / Fold change /veh CDHR5 (11726645_a_at) / RFU RCAN1 (11760418_a_at) / Fold change /veh RCAN1 (11760418_a_at) / RFU FAM167A (11723789_a_at) / Fold change /veh FAM167A (11723789_a_at) / RFU FAM26E (11764081_at) / Fold change /veh FAM26E (11764081_at) / RFU ISYNA1 (11749810_s_at) / Fold change /veh ISYNA1 (11749810_s_at) / RFU ACY1 (11761880_at) / Fold change /veh ACY1 (11761880_at) / RFU 11764098_at / Fold change /veh 11764098_at / RFU SAMD14 (11745864_x_at) / Fold change /veh SAMD14 (11745864_x_at) / RFU NPB (11741838_a_at) / Fold change /veh NPB (11741838_a_at) / RFU TMPRSS6 (11731388_a_at) / Fold change /veh TMPRSS6 (11731388_a_at) / RFU KRTAP10-2 (11738614_at) / Fold change /veh KRTAP10-2 (11738614_at) / RFU ARHGAP8 /// PRR5-ARHGAP8 (11727945_x_at) / Fold change /veh ARHGAP8 /// PRR5-ARHGAP8 (11727945_x_at) / RFU KRTAP5-7 /// NADSYN1 (11734609_at) / Fold change /veh KRTAP5-7 /// NADSYN1 (11734609_at) / RFU RASL12 (11751679_a_at) / Fold change /veh RASL12 (11751679_a_at) / RFU CDKN2B (11736163_a_at) / Fold change /veh CDKN2B (11736163_a_at) / RFU PRF1 (11729649_at) / Fold change /veh PRF1 (11729649_at) / RFU, ZNF638 /// ZNF638-IT1 / Fold change vs veh, ZNF638 /// ZNF638-IT1 / RFU, PANK3 / Fold change vs veh, PANK3 / RFU, SH3YL1 / Fold change vs veh, SH3YL1 / RFU, ZEB2 / Fold change vs veh, ZEB2 / RFU, NRIP1 / Fold change vs veh, NRIP1 / RFU, PTTG1IP / Fold change vs veh, PTTG1IP / RFU, CAPN2 / Fold change vs veh, CAPN2 / RFU, MED14 / Fold change vs veh, MED14 / RFU, SNORA58 / Fold change vs veh, SNORA58 / RFU, C1orf63 / Fold change vs veh, C1orf63 / RFU, LRRFIP1 / Fold change vs veh, LRRFIP1 / RFU, NDUFAF7 / Fold change vs veh, NDUFAF7 / RFU, SLC12A2 / Fold change vs veh, SLC12A2 / RFU, IBTK / Fold change vs veh, IBTK / RFU, ESF1 / Fold change vs veh, ESF1 / Fold change vs veh, TMEM50B / RFU, TAOK1 / Fold change vs veh, TAOK1 / RFU, ACBD3 / Fold change vs veh, ACBD3 / RFU, TMA16 / Fold change vs veh, TMA16 / RFU, RWDD3 / Fold change vs veh, RWDD3 / RFU, BCAT1 / Fold change vs veh, BCAT1 / RFU, EDEM3 / Fold change vs veh, EDEM3 / RFU, TMEM33 / Fold change vs veh, TMEM33 / RFU, WDR75 / Fold change vs veh, WDR75 / RFU, AHCTF1 / Fold change vs veh, AHCTF1 / RFU, TFRC / Fold change vs veh, TFRC / RFU, ZDHHC17 / Fold change vs veh, ZDHHC17 / RFU, NOM1 / Fold change vs veh, NOM1 / RFU, ARL8B / Fold change vs veh, ARL8B / RFU, ZBTB11 / Fold change vs veh, ZBTB11 / RFU, TAMM41 / Fold change vs veh, TAMM41 / RFU, KIAA1704 /// LOC100996395 / Fold change vs veh, KIAA1704 /// LOC100996395 / RFU, ING1 / Fold change vs veh, ING1 / RFU, TRMT61B / Fold change vs veh, TRMT61B / RFU, FUBP3 / Fold change vs veh, FUBP3 / RFU, TP53 / Fold change vs veh, TP53 / RFU, TNKS2 / Fold change vs veh, TNKS2 / RFU, ZFP14 / Fold change vs veh, ZFP14 / RFU, ACTR2 / Fold change vs veh, ACTR2 / RFU, PPP3R1 / Fold change vs veh, PPP3R1 / RFU, PIK3R1 / Fold change vs veh, PIK3R1 / RFU, HNRNPA1 / Fold change vs veh, HNRNPA1 / RFU, RNF170 / Fold change vs veh, RNF170 / RFU, ZNF28 / Fold change vs veh, ZNF28 / RFU, RNGTT / Fold change vs veh, RNGTT / RFU, OGT / Fold change vs veh, OGT / RFU, BRD1 / Fold change vs veh, BRD1 / RFU, MARS / Fold change vs veh, MARS / RFU, ZNF655 / Fold change vs veh, ZNF655 / RFU, FAHD1 / Fold change vs veh, FAHD1 / RFU, BDP1 / Fold change vs veh, BDP1 / RFU, LRRCC1 / Fold change vs veh, LRRCC1 / RFU, ARID1A / Fold change vs veh, ARID1A / RFU, ZNF146 / Fold change vs veh, ZNF146 / RFU, ZNF330 / Fold change vs veh, ZNF330 / RFU, GPN3 / Fold change vs veh, GPN3 / RFU, C9orf123 / Fold change vs veh, C9orf123 / RFU, N4BP2L2 / Fold change vs veh, N4BP2L2 / RFU, ARFIP1 / Fold change vs veh, ARFIP1 / RFU, FAM179B / Fold change vs veh, FAM179B / RFU, BCL10 / Fold change vs veh, BCL10 / RFU, UHRF1BP1L / Fold change vs veh, UHRF1BP1L / RFU, BET1 / Fold change vs veh, BET1 / RFU, CNOT2 / Fold change vs veh, CNOT2 / RFU, ZNF268 / Fold change vs veh, ZNF268 / Fold change vs veh, ZNF507 / RFU, DGCR2 / Fold change vs veh, DGCR2 / RFU, WDSUB1 / Fold change vs veh, WDSUB1 / Fold change vs veh, HSP90B1 /// MIR3652 / RFU, ADSS / Fold change vs veh, ADSS / RFU, GK / Fold change vs veh, GK / RFU, ZNF148 / Fold change vs veh, ZNF148 / RFU, TAF9 / Fold change vs veh, TAF9 / RFU, SLC1A5 / Fold change vs veh, SLC1A5 / RFU, SLMO2 / Fold change vs veh, SLMO2 / RFU, ABCC4 / Fold change vs veh, ABCC4 / RFU, LOC101060439 /// RAP1B / Fold change vs veh, LOC101060439 /// RAP1B / RFU, RFX7 / Fold change vs veh, RFX7 / RFU, GTPBP10 / Fold change vs veh, GTPBP10 / RFU, CNEP1R1 / Fold change vs veh, CNEP1R1 / RFU, BIVM-ERCC5 /// ERCC5 / Fold change vs veh, BIVM-ERCC5 /// ERCC5 / RFU, ILF3 / Fold change vs veh, ILF3 / RFU 11762660_at / Fold change /veh 11762660_at / RFU VCAN (11757783_s_at) / Fold change /veh VCAN (11757783_s_at) / RFU DDX43 (11728927_at) / Fold change /veh DDX43 (11728927_at) / RFU KRT8 (11758188_x_at) / Fold change /veh KRT8 (11758188_x_at) / RFU NKD1 (11759106_at) / Fold change /veh NKD1 (11759106_at) / RFU SRD5A1 (11742802_a_at) / Fold change /veh SRD5A1 (11742802_a_at) / RFU TPSAB1 /// TPSB2 (11721975_s_at) / Fold change /veh TPSAB1 /// TPSB2 (11721975_s_at) / RFU GSTM3 (11746129_a_at) / Fold change /veh GSTM3 (11746129_a_at) / RFU IL23R (11737362_x_at) / Fold change /veh IL23R (11737362_x_at) / RFU TMEM51 (11727254_a_at) / Fold change /veh TMEM51 (11727254_a_at) / RFU PIWIL2 (11732686_x_at) / Fold change /veh PIWIL2 (11732686_x_at) / RFU ORM1 (11744905_x_at) / Fold change /veh ORM1 (11744905_x_at) / RFU CCDC152 (11743942_at) / Fold change /veh CCDC152 (11743942_at) / RFU ECM1 (11717891_a_at) / Fold change /veh ECM1 (11717891_a_at) / RFU IL23R (11748794_a_at) / Fold change /veh IL23R (11748794_a_at) / RFU TNFAIP8L3 (11732012_x_at) / Fold change /veh TNFAIP8L3 (11732012_x_at) / RFU MBOAT4 (11741988_at) / Fold change /veh MBOAT4 (11741988_at) / RFU 11764193_at / Fold change /veh 11764193_at / RFU TMEM53 (11763286_at) / Fold change /veh TMEM53 (11763286_at) / RFU MAGEB2 (11727129_at) / Fold change /veh MAGEB2 (11727129_at) / RFU TMEM200A (11744735_a_at) / Fold change /veh TMEM200A (11744735_a_at) / RFU CCDC152 (11751479_a_at) / Fold change /veh CCDC152 (11751479_a_at) / RFU FAM211A (11726209_a_at) / Fold change /veh FAM211A (11726209_a_at) / RFU RGS16 (11746705_a_at) / Fold change /veh RGS16 (11746705_a_at) / RFU VCAN (11755009_s_at) / Fold change /veh VCAN (11755009_s_at) / RFU RHOB (11743442_s_at) / Fold change /veh RHOB (11743442_s_at) / RFU RGS16 (11720943_a_at) / Fold change /veh RGS16 (11720943_a_at) / RFU RGS16 (11720944_at) / Fold change /veh RGS16 (11720944_at) / RFU, VPS4B / Fold change vs veh, VPS4B / RFU, CREB1 / Fold change vs veh, CREB1 / RFU, DNAJC13 / Fold change vs veh, DNAJC13 / RFU, GNAQ / Fold change vs veh, GNAQ / RFU, CDK5R1 / Fold change vs veh, CDK5R1 / RFU, ZRANB3 / Fold change vs veh, ZRANB3 / RFU, CUL4A / Fold change vs veh, CUL4A / RFU, CCNY / Fold change vs veh, CCNY / RFU, UFL1 / Fold change vs veh, UFL1 / RFU, COG3 / Fold change vs veh, COG3 / RFU, DIAPH2 / Fold change vs veh, DIAPH2 / RFU, SKA2 / Fold change vs veh, SKA2 / RFU, AFF3 / Fold change vs veh, AFF3 / RFU, LMF1 / Fold change vs veh, LMF1 / RFU, IPO11 / Fold change vs veh, IPO11 / RFU, DFFB / Fold change vs veh, DFFB / RFU, FOXP1 / Fold change vs veh, FOXP1 / RFU, CARD8 / Fold change vs veh, CARD8 / RFU, STRN3 / Fold change vs veh, STRN3 / RFU, ADK / Fold change vs veh, ADK / RFU, RASSF2 / Fold change vs veh, RASSF2 / RFU, WIPF1 / Fold change vs veh, WIPF1 / RFU, LARP1B / Fold change vs veh, LARP1B / RFU, RASA1 / Fold change vs veh, RASA1 / RFU, RB1 / Fold change vs veh, RB1 / RFU, PPFIA1 / Fold change vs veh, PPFIA1 / RFU, MAT2A / Fold change vs veh, MAT2A / RFU, CCT5 / Fold change vs veh, CCT5 / RFU, WDR92 / Fold change vs veh, WDR92 / RFU, CUX1 / Fold change vs veh, CUX1 / RFU, TTC7A / Fold change vs veh, TTC7A / RFU, TMEM135 / Fold change vs veh, TMEM135 / RFU, DEPTOR / Fold change vs veh, DEPTOR / RFU, CPM / Fold change vs veh, CPM / RFU, DNAJB6 / Fold change vs veh, DNAJB6 / RFU, CACNA2D3 / Fold change vs veh, CACNA2D3 / RFU, DTX4 / Fold change vs veh, DTX4 / RFU, TFCP2 / Fold change vs veh, TFCP2 / RFU, GMCL1 /// GMCL1P1 / Fold change vs veh, GMCL1 /// GMCL1P1 / RFU, AEBP2 / Fold change vs veh, AEBP2 / RFU, SNHG1 /// SNORD22 /// SNORD25 /// SNORD26 /// SNORD27 /// SNORD28 /// SNORD29 /// SNORD31 / Fold change vs veh, SNHG1 /// SNORD22 /// SNORD25 /// SNORD26 /// SNORD27 /// SNORD28 /// SNORD29 /// SNORD31 / Fold change (Aza/veh), C12orf56 (ProbeSet 11735607_a_at) / Fold change (ACY-1035/veh), C12orf56 (ProbeSet 11735607_a_at) / Fold change (Aza/veh), FGFR1OP (ProbeSet 11751329_s_at) / Fold change (ACY-1035/veh), FGFR1OP (ProbeSet 11751329_s_at) / Fold change (Aza/veh), VPS36 (ProbeSet 11739960_a_at) / Fold change (ACY-1035/veh), VPS36 (ProbeSet 11739960_a_at) / RFU SYPL1 (11715823_x_at) / Fold change /veh SYPL1 (11715823_x_at) / RFU IGFBP7 (11715501_s_at) / Fold change /veh IGFBP7 (11715501_s_at) / RFU REEP3 (11722064_at) / Fold change /veh REEP3 (11722064_at) / RFU IGLL1 (11728026_x_at) / Fold change /veh IGLL1 (11728026_x_at): dose or concentration left out as unconfirmed",
  "conditions": "MV-4-11 cells, 48 hours",
  "data": [
    {"smiles": "Nc1ncn([C@@H]2O[C@H](CO)[C@@H](O)[C@H]2O)c(=O)n1", "note": "[azacitidine]", "values": [
      {"measurement": "RFU CDHR5 (11726645_a_at)", "value": 45.99, "unit": "RFU"}
    ]}
  ]
}
